These results are taken from patent publication US10195218B2, “Crystallization method and bioavailability” (GRUNENTHAL GMBH, priority 2016, dated 2019).

For data set [1] the following is noted: cited from earlier work.
For data set [2] the following is noted: cited from earlier work. This is another data set of the same source.
Data set [3] in a line: Dog PK study: serum concentrations of zoledronic acid after IV or oral (gelatin capsule, enteric or non-enteric coated, with or without excess coformer, micronized) dosing, LC/MS/MS. To be noted: beagle, Leg 1, IV 0.05 mg/kg, saline solution, time 0 hour (pre-dose), read-out: Average serum concentration of 5 dogs. The class given is in vivo.
Protocol: Surgical catheters (jugular vein and intraduodenum) were implanted to the animals prior to the study. Beagle dogs from Marshall Farms, N.Y., USA, weighing from (9-12 kg) were used in this study. Surgical catheters (jugular vein) were implanted prior to the study.
IV Administration: The dose volume of each dog was adjusted based upon the average weight of the dog. • ii.
Prior to dosing, all dogs received a 20 mL dose of citric acid (24 mg/mL in water) to lower the pH of their stomach. After dosing capsules or IV, all dogs received additional 6.25 mL citric acid solution (24 mg/mL in water) as a rinse.
Group A, (IV administration). Group members, designated IV doses are listed below:
Group B (oral administration): Group designations and oral doses are listed below:
Group C (oral administration): Group designations and oral doses are listed below:
Group D, (15 min IV infusion): Group members, designated IV doses are listed below:
Group E, (oral administration): Group members, designated IV doses are listed below:
Group F, (15 min IV infusion): Group members, designated IV doses are listed below: […]
A short description of data set [4]: Rat PK study: plasma concentrations of zoledronic acid after IV, oral gavage or intraduodenal (ID) dosing, LC/MS/MS. Type of data set: in vivo, Sprague-Dawley Rats. The protocol: These studies were conducted on rats and dogs as they are suitable animal models for zoledronic acid. This can be attributed to the fact that both animals have historically been used in the safety evaluation and PK screening studies and are recommended by appropriate regulatory agencies. […] Pure zoledronic acid and zoledronic acid complexes prepared by the methods in this invention were delivered to the rats and dogs through IV or oral routes. Additional tests included ID administration in rats and administration of enteric coated capsules in dogs. All compounds delivered were well tolerated by the animals with no adverse events or physical abnormalities noticed. […] USA. Surgical catheters (jugular vein and intraduodenum) were implanted to the animals prior to the study. […] Surgical catheters (jugular vein) were implanted prior to the study. […] Zoledronic acid and its complex formulations were administered through IV, oral and ID. […] The dose of each rat was calculated on a per rat basis (not on an average weight of all the rats in the lot). • ii. Oral gavage administration: solid suspensions were administered. The dose of each rat was calculated on a per rat basis (not on an average weight of all the rats in the lot). […] Duodenal cannula administration: solid suspensions were administered. The dose of each rat was calculated on a per rat basis (not on an average weight of all the rats in the lot). […] Group I (IV administration). Group members, designated IV doses are listed below IV comparator group, was conducted to calculate MAT (mean absorption time) and ka (absorption rate constant) for the oral groups. Group II (oral gavage): Group designations and oral doses are listed below: Group III (ID administration): Group designations and oral doses are listed below: Group IV (oral gavage): Group designations and oral doses are listed below: […] Samples were thawed on the day of analysis and the amount of zoledronic acid in the samples was quantified by analyzed by LC/MS/MS method.

Data set [5] is described as follows: Aqueous solubility at room temperature. Conditions: water. Type of data set: physicochemical.
The mark [6] stands for this setting: ID (duodenal cannula) 5 mg/kg zoledronic acid equivalent, PEG 400, time 8 hour.
[7] abbreviates: ID (duodenal cannula) 5 mg/kg zoledronic acid equivalent, PEG 400, time 24 hour.
[8] abbreviates: PO gavage 5 mg/kg zoledronic acid equivalent, PEG 400, time 24 hour (Table 1).
The mark [9] stands for this setting: molar concentration of the complex.

Read-outs that look alike come from different tables or passages of the source.

Take `O=P(O)(O)C(O)(Cn1ccnc1)P(=O)(O)O` [Zoledronic acid, (1-hydroxy-2-imidazol-1-yl-1-phosphono-ethyl)phosphonic acid]: the “solubility in 0.1 N HCl solution” value in data set [1] (0.1 N HCl solution) is “sparingly soluble”. Moreover, the “solubility in 0.1 N NaOH” value in data set [1] (0.1 N NaOH) is given as “freely soluble”. The “solubility in various organic solvents” value in data set [1] (various organic solvents) is given as “practically insoluble”. Further, the solubility in water entry in data set [1] (water) was “sparingly soluble”. Moreover, the oral bioavailability result in data set [2] (according to FDA Summary Basis of Approval) is “approximately 1%”. For the same compound, the “gastric and intestinal irritation” value in data set [2] (in vivo) is “severe gastric and intestinal irritations”. Further, the concentration at 0 h in data set [3] came out at 0 ng/mL.
Turning to Zoledronic, L-lysine, and water complex, the “Average plasma concentration of 3 Rats” value in data set [4] (ID (duodenal cannula) 5 mg/kg zoledronic acid equivalent, PEG 400, time 0.25 hour) was 91.21 ng/mL; in data set [4] (ID (duodenal cannula) 5 mg/kg zoledronic acid equivalent, PEG 400, time 1 hour), 26.53 ng/mL; in data set [4] (ID (duodenal cannula) 5 mg/kg zoledronic acid equivalent, PEG 400, time 4 hour), 0.74 ng/mL; in data set [4] (setting [6]), 0.00 ng/mL; in data set [4] (setting [7]) it was 0.00 ng/mL; in data set [4] (PO gavage 5 mg/kg zoledronic acid equivalent, PEG 400, time 0.25 hour (Table 1)), 258.43 ng/mL. Besides, the “Average plasma concentration of 3 Rats” value in data set [4] (PO gavage 5 mg/kg zoledronic acid equivalent, PEG 400, time 0.5 hour (Table 1)) worked out at 249.82 ng/mL; in data set [4] (PO gavage 5 mg/kg zoledronic acid equivalent, PEG 400, time 1 hour (Table 1)), 184.95 ng/mL; in data set [4] (PO gavage 5 mg/kg zoledronic acid equivalent, PEG 400, time 4 hour (Table 1)), 28.70 ng/mL; in data set [4] (PO gavage 5 mg/kg zoledronic acid equivalent, PEG 400, time 8 hour (Table 1)), 3.27 ng/mL; in data set [4] (setting [8]), 0.00 ng/mL.
On to `NCCCCC(N)C(=O)O.O.O=P(O)(O)C(O)(Cn1ccnc1)P(=O)(O)O` [ZA:DL-Lysine monohydrate], for which the “Aqueous solubility, Conc.” value in data set [5] came to 13900 µg/mL. The “Aqueous solubility, mMol/L (complex)” value in data set [5] (setting [9]) is 31.86 mmol/L.
For the compound `O=P(O)(O)C(O)(Cn1ccnc1)P(=O)(O)O` [ZA monohydrate, Zoledronic acid monohydrate, reference compound], the solubility in data set [5] (molar concentration of the complex, read-out: Aqueous solubility, mMol/L (complex)) came out at 5.41 mmol/L; in data set [5] (read-out: Aqueous solubility, Conc.) it was 1570 µg/mL.
On to `NCCCCC(N)C(=O)O.O.O.O=P(O)(O)C(O)(Cn1ccnc1)P(=O)(O)O` [ZA:L-Lysine dihydrate], for which the “Aqueous solubility, Conc.” value in data set [5] is 8220 µg/mL. In data set [5] (setting [9]), the “Aqueous solubility, mMol/L (complex)” value came to 18.09 mmol/L.
“Zoledronic, Nicotinamide, and Water Complex”: the “Average plasma concentration of 3 Rats” value in data set [4] (setting [6]), in data set [4] (setting [7]) and in data set [4] (setting [8]) was 0.00 ng/mL throughout.
